Laboratory results from article PMC5218480 (PLoS ONE, 2017).

Tested on: MV-4-11 cells
Experiment: Gene expression microarray analysis (Affymetrix PrimeView) and GSEA
Format: cell-based, human
Parameters: RFU PODN (11730768_x_at) / Fold change /veh PODN (11730768_x_at) / RFU LINC00158 (11744669_a_at) / Fold change /veh LINC00158 (11744669_a_at) / RFU DUSP10 (11751237_a_at) / Fold change /veh DUSP10 (11751237_a_at) / RFU ID3 (11757404_x_at) / Fold change /veh ID3 (11757404_x_at) / RFU PLEKHG5 (11737974_s_at) / Fold change /veh PLEKHG5 (11737974_s_at) / RFU LRRC4B (11730491_at) / Fold change /veh LRRC4B (11730491_at) / RFU GIMAP4 (11747438_a_at) / Fold change /veh GIMAP4 (11747438_a_at) / RFU KRT8 (11758183_x_at) / Fold change /veh KRT8 (11758183_x_at) / RFU CNN1 (11734310_a_at) / Fold change /veh CNN1 (11734310_a_at) / RFU VPS37D (11726825_at) / Fold change /veh VPS37D (11726825_at) / RFU C10orf10 (11716522_x_at) / Fold change /veh C10orf10 (11716522_x_at) / RFU KIR2DL2 /// KIR2DL4 /// KIR2DL5A /// KIR2DL5B /// KIR2DS1 /// KIR2DS2 /// KIR2DS3 /// KIR2DS4 /// KIR3DL3 /// KIR3DL3 /// KIR3DS1 (11738374_at) / Fold change /veh KIR2DL2 /// KIR2DL4 /// KIR2DL5A /// KIR2DL5B /// KIR2DS1 /// KIR2DS2 /// KIR2DS3 /// KIR2DS4 /// KIR3DL3 /// KIR3DL3 /// KIR3DS1 (11738374_at) / RFU C1QL1 (11718748_at) / Fold change /veh C1QL1 (11718748_at) / RFU TMPRSS4 (11747572_a_at) / Fold change /veh TMPRSS4 (11747572_a_at) / RFU HAMP (11756126_x_at) / Fold change /veh HAMP (11756126_x_at) / RFU RNFT2 (11725882_a_at) / Fold change /veh RNFT2 (11725882_a_at) / RFU NR4A2 (11747474_a_at) / Fold change /veh NR4A2 (11747474_a_at) / RFU ABCC12 (11746883_a_at) / Fold change /veh ABCC12 (11746883_a_at) / RFU TMEM136 (11760407_x_at) / Fold change /veh TMEM136 (11760407_x_at) / RFU CLDN22 /// WWC2 (11732394_at) / Fold change /veh CLDN22 /// WWC2 (11732394_at) / RFU HLA-DPB1 (11760878_x_at) / Fold change /veh HLA-DPB1 (11760878_x_at) / RFU SPINT1 (11716480_a_at) / Fold change /veh SPINT1 (11716480_a_at) / RFU GAP43 (11754022_s_at) / Fold change /veh GAP43 (11754022_s_at) / RFU A4GNT (11735810_at) / Fold change /veh A4GNT (11735810_at) / RFU PRB3 (11715151_x_at) / Fold change /veh PRB3 (11715151_x_at) / RFU TUBB4B (11761932_at) / Fold change /veh TUBB4B (11761932_at) / RFU CAPN14 (11732068_a_at) / Fold change /veh CAPN14 (11732068_a_at) / RFU TMCC2 (11721928_a_at) / Fold change /veh TMCC2 (11721928_a_at) / RFU IRGQ (11745062_a_at) / Fold change /veh IRGQ (11745062_a_at) / RFU FAM174B (11720279_a_at) / Fold change /veh FAM174B (11720279_a_at) / RFU TMPRSS4 (11748680_a_at) / Fold change /veh TMPRSS4 (11748680_a_at) / RFU FAM212B (11763350_a_at) / Fold change /veh FAM212B (11763350_a_at) / RFU PLEKHG5 (11743358_a_at) / Fold change /veh PLEKHG5 (11743358_a_at) / RFU ZSCAN30 (11745921_a_at) / Fold change /veh ZSCAN30 (11745921_a_at) / RFU CMKLR1 (11741424_a_at) / Fold change /veh CMKLR1 (11741424_a_at) / RFU LOC101060620 /// MAPK8IP1 (11723275_at) / Fold change /veh LOC101060620 /// MAPK8IP1 (11723275_at) / RFU SPTSSB (11747773_x_at) / Fold change /veh SPTSSB (11747773_x_at) / RFU PRSS12 (11739890_at) / Fold change /veh PRSS12 (11739890_at) / RFU BIN1 (11741810_x_at) / Fold change /veh BIN1 (11741810_x_at) / RFU WNT11 (11732464_a_at) / Fold change /veh WNT11 (11732464_a_at) / RFU C10orf10 (11716521_a_at) / Fold change /veh C10orf10 (11716521_a_at) / RFU C5orf56 (11738089_at) / Fold change /veh C5orf56 (11738089_at) / RFU CYB561 (11721691_x_at) / Fold change /veh CYB561 (11721691_x_at) / RFU ANKRD19P (11752326_a_at) / Fold change /veh ANKRD19P (11752326_a_at) / RFU OR2T12 /// OR2T33 /// OR2T8 (11738714_s_at) / Fold change /veh OR2T12 /// OR2T33 /// OR2T8 (11738714_s_at) / RFU VCAN (11748164_a_at) / Fold change /veh VCAN (11748164_a_at) / RFU JSRP1 (11732532_at) / Fold change /veh JSRP1 (11732532_at) / RFU KRTAP10-11 (11738290_x_at) / Fold change /veh KRTAP10-11 (11738290_x_at) / RFU MYO3A (11730013_a_at) / Fold change /veh MYO3A (11730013_a_at) / RFU EBF3 (11725865_a_at) / Fold change /veh EBF3 (11725865_a_at) / RFU CAMK2N1 (11719241_x_at) / Fold change /veh CAMK2N1 (11719241_x_at) / RFU C5orf56 (11738088_a_at) / Fold change /veh C5orf56 (11738088_a_at) / RFU OLFML3 (11715873_a_at) / Fold change /veh OLFML3 (11715873_a_at) / RFU LOC100653217 /// NTM (11731650_a_at) / Fold change /veh LOC100653217 /// NTM (11731650_a_at) / RFU MAPK11 (11762145_a_at) / Fold change /veh MAPK11 (11762145_a_at) / RFU FIZ1 (11724087_x_at) / Fold change /veh FIZ1 (11724087_x_at) / RFU OASL (11726364_x_at) / Fold change /veh OASL (11726364_x_at) / RFU SOX15 (11748057_x_at) / Fold change /veh SOX15 (11748057_x_at) / RFU CD79A (11719716_a_at) / Fold change /veh CD79A (11719716_a_at) / RFU HIST1H1D (11736915_at) / Fold change /veh HIST1H1D (11736915_at) / RFU CASKIN2 (11723855_a_at) / Fold change /veh CASKIN2 (11723855_a_at) / RFU LOC730098 (11760151_x_at) / Fold change /veh LOC730098 (11760151_x_at) / RFU OR4N2 (11742367_at) / Fold change /veh OR4N2 (11742367_at) / RFU PRRT2 (11749266_a_at) / Fold change /veh PRRT2 (11749266_a_at) / RFU SNX32 (11753110_a_at) / Fold change /veh SNX32 (11753110_a_at) / RFU CDHR5 (11726645_a_at) / Fold change /veh CDHR5 (11726645_a_at) / RFU RCAN1 (11760418_a_at) / Fold change /veh RCAN1 (11760418_a_at) / RFU FAM167A (11723789_a_at) / Fold change /veh FAM167A (11723789_a_at) / RFU FAM26E (11764081_at) / Fold change /veh FAM26E (11764081_at) / RFU ISYNA1 (11749810_s_at) / Fold change /veh ISYNA1 (11749810_s_at) / RFU ACY1 (11761880_at) / Fold change /veh ACY1 (11761880_at) / RFU 11764098_at / Fold change /veh 11764098_at / RFU SAMD14 (11745864_x_at) / Fold change /veh SAMD14 (11745864_x_at) / RFU NPB (11741838_a_at) / Fold change /veh NPB (11741838_a_at) / RFU TMPRSS6 (11731388_a_at) / Fold change /veh TMPRSS6 (11731388_a_at) / RFU KRTAP10-2 (11738614_at) / Fold change /veh KRTAP10-2 (11738614_at) / RFU ARHGAP8 /// PRR5-ARHGAP8 (11727945_x_at) / Fold change /veh ARHGAP8 /// PRR5-ARHGAP8 (11727945_x_at) / RFU KRTAP5-7 /// NADSYN1 (11734609_at) / Fold change /veh KRTAP5-7 /// NADSYN1 (11734609_at) / RFU RASL12 (11751679_a_at) / Fold change /veh RASL12 (11751679_a_at) / RFU CDKN2B (11736163_a_at) / Fold change /veh CDKN2B (11736163_a_at) / RFU PRF1 (11729649_at) / Fold change /veh PRF1 (11729649_at) / RFU, ZNF638 /// ZNF638-IT1 / Fold change vs veh, ZNF638 /// ZNF638-IT1 / RFU, PANK3 / Fold change vs veh, PANK3 / RFU, SH3YL1 / Fold change vs veh, SH3YL1 / RFU, ZEB2 / Fold change vs veh, ZEB2 / RFU, NRIP1 / Fold change vs veh, NRIP1 / RFU, PTTG1IP / Fold change vs veh, PTTG1IP / RFU, CAPN2 / Fold change vs veh, CAPN2 / RFU, MED14 / Fold change vs veh, MED14 / RFU, SNORA58 / Fold change vs veh, SNORA58 / RFU, C1orf63 / Fold change vs veh, C1orf63 / RFU, LRRFIP1 / Fold change vs veh, LRRFIP1 / RFU, NDUFAF7 / Fold change vs veh, NDUFAF7 / RFU, SLC12A2 / Fold change vs veh, SLC12A2 / RFU, IBTK / Fold change vs veh, IBTK / RFU, ESF1 / Fold change vs veh, ESF1 / Fold change vs veh, TMEM50B / RFU, TAOK1 / Fold change vs veh, TAOK1 / RFU, ACBD3 / Fold change vs veh, ACBD3 / RFU, TMA16 / Fold change vs veh, TMA16 / RFU, RWDD3 / Fold change vs veh, RWDD3 / RFU, BCAT1 / Fold change vs veh, BCAT1 / RFU, EDEM3 / Fold change vs veh, EDEM3 / RFU, TMEM33 / Fold change vs veh, TMEM33 / RFU, WDR75 / Fold change vs veh, WDR75 / RFU, AHCTF1 / Fold change vs veh, AHCTF1 / RFU, TFRC / Fold change vs veh, TFRC / RFU, ZDHHC17 / Fold change vs veh, ZDHHC17 / RFU, NOM1 / Fold change vs veh, NOM1 / RFU, ARL8B / Fold change vs veh, ARL8B / RFU, ZBTB11 / Fold change vs veh, ZBTB11 / RFU, TAMM41 / Fold change vs veh, TAMM41 / RFU, KIAA1704 /// LOC100996395 / Fold change vs veh, KIAA1704 /// LOC100996395 / RFU, ING1 / Fold change vs veh, ING1 / RFU, TRMT61B / Fold change vs veh, TRMT61B / RFU, FUBP3 / Fold change vs veh, FUBP3 / RFU, TP53 / Fold change vs veh, TP53 / RFU, TNKS2 / Fold change vs veh, TNKS2 / RFU, ZFP14 / Fold change vs veh, ZFP14 / RFU, ACTR2 / Fold change vs veh, ACTR2 / RFU, PPP3R1 / Fold change vs veh, PPP3R1 / RFU, PIK3R1 / Fold change vs veh, PIK3R1 / RFU, HNRNPA1 / Fold change vs veh, HNRNPA1 / RFU, RNF170 / Fold change vs veh, RNF170 / RFU, ZNF28 / Fold change vs veh, ZNF28 / RFU, RNGTT / Fold change vs veh, RNGTT / RFU, OGT / Fold change vs veh, OGT / RFU, BRD1 / Fold change vs veh, BRD1 / RFU, MARS / Fold change vs veh, MARS / RFU, ZNF655 / Fold change vs veh, ZNF655 / RFU, FAHD1 / Fold change vs veh, FAHD1 / RFU, BDP1 / Fold change vs veh, BDP1 / RFU, LRRCC1 / Fold change vs veh, LRRCC1 / RFU, ARID1A / Fold change vs veh, ARID1A / RFU, ZNF146 / Fold change vs veh, ZNF146 / RFU, ZNF330 / Fold change vs veh, ZNF330 / RFU, GPN3 / Fold change vs veh, GPN3 / RFU, C9orf123 / Fold change vs veh, C9orf123 / RFU, N4BP2L2 / Fold change vs veh, N4BP2L2 / RFU, ARFIP1 / Fold change vs veh, ARFIP1 / RFU, FAM179B / Fold change vs veh, FAM179B / RFU, BCL10 / Fold change vs veh, BCL10 / RFU, UHRF1BP1L / Fold change vs veh, UHRF1BP1L / RFU, BET1 / Fold change vs veh, BET1 / RFU, CNOT2 / Fold change vs veh, CNOT2 / RFU, ZNF268 / Fold change vs veh, ZNF268 / Fold change vs veh, ZNF507 / RFU, DGCR2 / Fold change vs veh, DGCR2 / RFU, WDSUB1 / Fold change vs veh, WDSUB1 / Fold change vs veh, HSP90B1 /// MIR3652 / RFU, ADSS / Fold change vs veh, ADSS / RFU, GK / Fold change vs veh, GK / RFU, ZNF148 / Fold change vs veh, ZNF148 / RFU, TAF9 / Fold change vs veh, TAF9 / RFU, SLC1A5 / Fold change vs veh, SLC1A5 / RFU, SLMO2 / Fold change vs veh, SLMO2 / RFU, ABCC4 / Fold change vs veh, ABCC4 / RFU, LOC101060439 /// RAP1B / Fold change vs veh, LOC101060439 /// RAP1B / RFU, RFX7 / Fold change vs veh, RFX7 / RFU, GTPBP10 / Fold change vs veh, GTPBP10 / RFU, CNEP1R1 / Fold change vs veh, CNEP1R1 / RFU, BIVM-ERCC5 /// ERCC5 / Fold change vs veh, BIVM-ERCC5 /// ERCC5 / RFU, ILF3 / Fold change vs veh, ILF3 / RFU 11762660_at / Fold change /veh 11762660_at / RFU VCAN (11757783_s_at) / Fold change /veh VCAN (11757783_s_at) / RFU DDX43 (11728927_at) / Fold change /veh DDX43 (11728927_at) / RFU KRT8 (11758188_x_at) / Fold change /veh KRT8 (11758188_x_at) / RFU NKD1 (11759106_at) / Fold change /veh NKD1 (11759106_at) / RFU SRD5A1 (11742802_a_at) / Fold change /veh SRD5A1 (11742802_a_at) / RFU TPSAB1 /// TPSB2 (11721975_s_at) / Fold change /veh TPSAB1 /// TPSB2 (11721975_s_at) / RFU GSTM3 (11746129_a_at) / Fold change /veh GSTM3 (11746129_a_at) / RFU IL23R (11737362_x_at) / Fold change /veh IL23R (11737362_x_at) / RFU TMEM51 (11727254_a_at) / Fold change /veh TMEM51 (11727254_a_at) / RFU PIWIL2 (11732686_x_at) / Fold change /veh PIWIL2 (11732686_x_at) / RFU ORM1 (11744905_x_at) / Fold change /veh ORM1 (11744905_x_at) / RFU CCDC152 (11743942_at) / Fold change /veh CCDC152 (11743942_at) / RFU ECM1 (11717891_a_at) / Fold change /veh ECM1 (11717891_a_at) / RFU IL23R (11748794_a_at) / Fold change /veh IL23R (11748794_a_at) / RFU TNFAIP8L3 (11732012_x_at) / Fold change /veh TNFAIP8L3 (11732012_x_at) / RFU MBOAT4 (11741988_at) / Fold change /veh MBOAT4 (11741988_at) / RFU 11764193_at / Fold change /veh 11764193_at / RFU TMEM53 (11763286_at) / Fold change /veh TMEM53 (11763286_at) / RFU MAGEB2 (11727129_at) / Fold change /veh MAGEB2 (11727129_at) / RFU TMEM200A (11744735_a_at) / Fold change /veh TMEM200A (11744735_a_at) / RFU CCDC152 (11751479_a_at) / Fold change /veh CCDC152 (11751479_a_at) / RFU FAM211A (11726209_a_at) / Fold change /veh FAM211A (11726209_a_at) / RFU RGS16 (11746705_a_at) / Fold change /veh RGS16 (11746705_a_at) / RFU VCAN (11755009_s_at) / Fold change /veh VCAN (11755009_s_at) / RFU RHOB (11743442_s_at) / Fold change /veh RHOB (11743442_s_at) / RFU RGS16 (11720943_a_at) / Fold change /veh RGS16 (11720943_a_at) / RFU RGS16 (11720944_at) / Fold change /veh RGS16 (11720944_at) / RFU, VPS4B / Fold change vs veh, VPS4B / RFU, CREB1 / Fold change vs veh, CREB1 / RFU, DNAJC13 / Fold change vs veh, DNAJC13 / RFU, GNAQ / Fold change vs veh, GNAQ / RFU, CDK5R1 / Fold change vs veh, CDK5R1 / RFU, ZRANB3 / Fold change vs veh, ZRANB3 / RFU, CUL4A / Fold change vs veh, CUL4A / RFU, CCNY / Fold change vs veh, CCNY / RFU, UFL1 / Fold change vs veh, UFL1 / RFU, COG3 / Fold change vs veh, COG3 / RFU, DIAPH2 / Fold change vs veh, DIAPH2 / RFU, SKA2 / Fold change vs veh, SKA2 / RFU, AFF3 / Fold change vs veh, AFF3 / RFU, LMF1 / Fold change vs veh, LMF1 / RFU, IPO11 / Fold change vs veh, IPO11 / RFU, DFFB / Fold change vs veh, DFFB / RFU, FOXP1 / Fold change vs veh, FOXP1 / RFU, CARD8 / Fold change vs veh, CARD8 / RFU, STRN3 / Fold change vs veh, STRN3 / RFU, ADK / Fold change vs veh, ADK / RFU, RASSF2 / Fold change vs veh, RASSF2 / RFU, WIPF1 / Fold change vs veh, WIPF1 / RFU, LARP1B / Fold change vs veh, LARP1B / RFU, RASA1 / Fold change vs veh, RASA1 / RFU, RB1 / Fold change vs veh, RB1 / RFU, PPFIA1 / Fold change vs veh, PPFIA1 / RFU, MAT2A / Fold change vs veh, MAT2A / RFU, CCT5 / Fold change vs veh, CCT5 / RFU, WDR92 / Fold change vs veh, WDR92 / RFU, CUX1 / Fold change vs veh, CUX1 / RFU, TTC7A / Fold change vs veh, TTC7A / RFU, TMEM135 / Fold change vs veh, TMEM135 / RFU, DEPTOR / Fold change vs veh, DEPTOR / RFU, CPM / Fold change vs veh, CPM / RFU, DNAJB6 / Fold change vs veh, DNAJB6 / RFU, CACNA2D3 / Fold change vs veh, CACNA2D3 / RFU, DTX4 / Fold change vs veh, DTX4 / RFU, TFCP2 / Fold change vs veh, TFCP2 / RFU, GMCL1 /// GMCL1P1 / Fold change vs veh, GMCL1 /// GMCL1P1 / RFU, AEBP2 / Fold change vs veh, AEBP2 / RFU, SNHG1 /// SNORD22 /// SNORD25 /// SNORD26 /// SNORD27 /// SNORD28 /// SNORD29 /// SNORD31 / Fold change vs veh, SNHG1 /// SNORD22 /// SNORD25 /// SNORD26 /// SNORD27 /// SNORD28 /// SNORD29 /// SNORD31 / Fold change (Aza/veh), C12orf56 (ProbeSet 11735607_a_at) / Fold change (ACY-1035/veh), C12orf56 (ProbeSet 11735607_a_at) / Fold change (Aza/veh), FGFR1OP (ProbeSet 11751329_s_at) / Fold change (ACY-1035/veh), FGFR1OP (ProbeSet 11751329_s_at) / Fold change (Aza/veh), VPS36 (ProbeSet 11739960_a_at) / Fold change (ACY-1035/veh), VPS36 (ProbeSet 11739960_a_at) / RFU SYPL1 (11715823_x_at) / Fold change /veh SYPL1 (11715823_x_at) / RFU IGFBP7 (11715501_s_at) / Fold change /veh IGFBP7 (11715501_s_at) / RFU REEP3 (11722064_at) / Fold change /veh REEP3 (11722064_at) / RFU IGLL1 (11728026_x_at) / Fold change /veh IGLL1 (11728026_x_at): dose or concentration left out as unconfirmed
Conditions: ProbeSet 11740781_a_at; LIST B

SMILES: Nc1ncn([C@@H]2O[C@H](CO)[C@@H](O)[C@H]2O)c(=O)n1 [azacitidine]
- Fold change vs veh, ILF3: 0.96
